# Measured values reported in patent publication US8536196B2, “Substituted 1,3-dioxanes useful as PPAR modulators” (Evolva SA, priority 2007, dated 2013).
# System: MEFs / 3T3-L1
# Test: Adipocyte differentiation induction assay (Oil Red O staining)
# Format: cell-based, mouse
# Protocol: This example describes an assay for determining adipocyte differention. Compounds are tested to see whether they induce adipocyte differentiation and also to see whether they inhibit adipocyte differention.
# MEFs were grown in AmnioMax basal medium (Gibco) supplemented with 7.5% Amniomax supplement C-100 (Gibco), 7.5% Fetal Bovine Serum (FBS), 2 mM Glutamine, 62.5 μg/ml penicillin and 100 μg/ml Streptomycin (growth medium). At confluence, MEFs were induced to differentiation in growth medium with the addition of 1 μM dexamethasone (Sigma) 0.5 mM isobutylmethylxanthine (Sigma), 5 μg/ml insulin (Sigma) and 10 μM test compound dissolved in DMSO or DMSO alone. Medium was subsequently renewed every 48 hrs with growth media supplemented with 5 μg/ml Insulin and ligand or DMSO.
# Briefly, to test compounds as inducers of adipocyte differentiation, 3T3-L1 are grown to confluence in DMEM with 10% Calf serum (CS), typically in 24 well dishes. At 2 days post confluence (day 0), cells are induced to differentiate with DMEM supplemented with 10% fetal bovine serum (FBS), 1 μM dexamethasone and the test compound (01, 1 and 10 μM). BRL49653 (1.0 μM dissolved in 100% DMSO) is used as a positive control. After 48 h, the cells are re-fed with DMEM containing 10% FBS supplemented with the test compound or the positive control. From day 4, cells are grown in DMEM with 10% FBS and are changed every second day until day 8. At day 8, cells are stained with Oil Red O as described below.
# Cells cultured as described above are used for Oil Red staining. Dishes are washed in PBS and cells were fixed in 3.7% paraformaldehyde for 1 h and stained with oil red O as described in (Hansen et al 1999). Oil red O solution stock solution is prepared by dissolving 0.5 g of Oil Red O (Sigma) in 100 mL of isopropanol. Oil re 0 working solution is prepared by diluting a stock solution with water (6:4) followed by filtration.
# Table II summarizes results obtained with different analogs of DPD (SN1), “0” representing similar results to DPD, “−1” representing even less adipocyte differentiation, “+1” representing more adipocyte differentiation (both relative to DPD) and “−” meaning not assayed.
smiles,measurement,value
"O=C(O)CC/C=C\CC1COC(c2ccccc2Cl)OC1c1ccccc1O (racemic) [SN1, (Z)-6-(-2-(2-chlorophenyl)-4-(2-hydroxyphenyl)-1,3-dioxan-5-yl)hex-4-enoic acid]",red staining (Oil Red O) in the induction assay,very little red staining
